Patent publication US20060194315A1, “Compositions and methods for the control, differentiaton and/or manipulation of pluripotent cells through a gamma-secretase signaling pathway” (priority 2003, published 2006)

How the values were obtained:
hES cells [1] = experiment: Embryoid body formation from late trypsin passaged hES cultures; assay type: cell-based, human; conditions: late trypsin passaged cultures maintained in DAPT vs DMSO vs untreated
Procedure: Embryoid bodies were formed from cultures that had been growing on Matrigel and exposed to the different treatments. These cultures were exposed to Collagenase type IV or Dispase (Gibco) for 10 minutes at 37° C. until a monolayer of cells lifted off of the dish. The monolayer was passed through a pipette tip until it was broken down to small clumps of approximately 500-1000 cells. These clumps were washed in 15% FBS/1% MEM nonessential amino acids/1 mM L-glutamine/penicillin (0.5 U/ml) and streptomycin (0.5 U/ml) twice by allowing them to settle by gravity, removing the supernatant, and resuspending the loose pellet. The cells were plated onto agarose coated Petri dishes in the same medium used for washing and allowed to grow for up to 10 days.
Inhibition of gamma-secretase reduces the number of spontaneously differentiated cells in the culture. […] These experiments are diagramed in FIG. 9. hES cell master cultures were maintained with the manual passaging technique. A combination of Collagenase type IV treatment and Trypsin/EDTA exposure was used to passage the hES cells as single cells for no more than 10-12 passages before SSEA4 selection for early trypsin cultures, or were passaged more than 40 passages for late trypsin cultures. […] The treated cultures were analyzed for SSEA4 expression by flow cytometry, immunohistochemistry, and EB formation.

gamma-secretase complex = target: T1, gamma-secretase complex (Homo sapiens, UniProt P49768); experiment: Western blot for gamma-secretase cleaved Notch1 (NICD) in hES cells harvested with Trypsin/EDTA; assay type: cell-based; conditions: BGN1 hES cells grown in 50 μM DAPT for 3 days, vs 0.5% DMSO
T1 construct: endogenous in cells; host or cells: BGN1 human embryonic stem cells, grown on mouse embryonic fibroblast feeders
Procedure: Western blots were done using standard procedures. In brief, protein content of samples was determined with a BCA micro protein assay (Pierce, Rockford, Ill.) and equal amounts of protein were loaded onto precast polyacrylamide mini-gels (Gradipore, Australia). Proteins were transferred to nylon membranes which were then incubated for 30 minutes in blocking buffer (tris buffered saline/0.1% tween 20/5% powdered milk). Primary antibodies were diluted in blocking buffer at the following ratios: bTAN20 and C651.6bHN were diluted 1:10; anti-Oct4 was diluted 1:100; anti-presenilin, nicastrin, cleaved NOTCH1 were diluted 1:1000 and anti-HDAC was used at a concentration of 0.5 μg/ml. Primary antibodies were incubated overnight at 4° C., followed by two five-minute washes and one 15-minute wash in tris-buffered saline/0.1% tween 20. Secondary antibodies were diluted in blocking buffer and incubated with the membranes for 45 minutes at room temperature. Washes were repeated as above and a final 15-minute wash was done with tris-buffered saline. ECL (Amersham, Buckinghamshire, England) was performed according to the manufacturer's instructions and autoradiographs were made.
To address the possibility that trypsin non-specifically generated the 110 kD Notch1 band, DAPT, a potent and specific gamma-secretase inhibitor, was used to treat the hES cells before harvesting. […]

Hes1 = experiment: Real-time RT-PCR of Hes1 induction by EDTA in hES cells; assay type: cell-based, human
Procedure: Hes1 induction by EDTA treatment was monitored by real-time RT-PCR. Cultures of […] on Matrigel-coated 24-well plates were treated with either 0.5% DMSO or 50 μM DAPT in CM for 4 hours to overnight before induction by EDTA exposure. The wells were exposed to 2 mM EDTA in CM (with DMSO or DAPT) for 15 minutes at 37° C. EDTA was neutralized by addition of 4.9 mM CaCl2 and incubated for a further 1.5 hours. The cells were harvested with Trizol and RNA was extracted as described above. Real-time PCR was performed using TaqMan primers and probes (Applied Biosystems, Inc.) for Hes1 (primer sequences: […] ID NO: 17); […] ID NO:18); probe […] NO:19)) and normalized to GAPDH (kit from Applied Biosystems, Inc; cat. no. 402869). Reactions were run and monitored on an ABI7700 Sequence Detection System (Applied Bioysytems, Inc). Data was analyzed as described in Pfaffl et al., 2002 Nucleic Acids Research 30(9): […]. REST-XL (version 2) software was used to determine relative quantification of Hes1 gene expression. The data were expressed as the ratio of GAPDH normalized Hes1 expression of EDTA-treated to EDTA-untreated samples. DAPT treated cultures were compared to DMSO treated cultures. These values were log transformed for statistical analysis by t-test and graphed in Excel.

[2] = test system: hES cells (BGN1 and BGN2); experiment: Flow cytometry of SSEA4 and Notch1 expression in treated hES cell cultures; assay type: cell-based, human; conditions: for proportion of cells in Fr. A (SSEA4high/Notch1high, undifferentiated cells): 50 μM DAPT vs DMSO, four experiments
Procedure: Cultures were harvested by Collagenase/trypsin passaging methods described above as an essentially single cell suspension, washed in 1×PBS, and fixed in 1% paraformaldehyde for 25 minutes on ice. The cells were washed in 1×PBS, blocked in 3% goat serum, and stained with primary antibodies for 30 minutes. to overnight at 4° C. The cells were washed in 1×PBS three times and stained with Secondary FITC or PE conjugated antibodies (Jackson Immunochemicals, Inc.) for 1 hour to overnight at 4° C. The cells were washed with 1×PBS three times and analyzed on a CyAn flow cytometer (DakoCytomation, Inc.).
Inhibition of gamma-secretase reduces the number of spontaneously differentiated cells in the culture. […] These experiments are diagramed in FIG. 9. hES cell master cultures were maintained with the manual passaging technique. A combination of Collagenase type IV treatment and Trypsin/EDTA exposure was used to passage the hES cells as single cells for no more than 10-12 passages before SSEA4 selection for early trypsin cultures, or were passaged more than 40 passages for late trypsin cultures. The cultures were selected for SSEA4 epitope expression using magnetic selection of SSEA4 antibody-stained cells. The retained fraction from the sort was plated and subjected to the treatment conditions. In some instances, SSEA4 selected cells were expanded for one or two passages. Treatment conditions were 50 μM DAPT, or 0.5% DMSO as carrier control. In some cases, these conditions were compared to untreated cells. The treated cultures were analyzed for SSEA4 expression by flow cytometry, immunohistochemistry, and EB formation.

hES cells [3] = experiment: SSEA4 immunohistochemistry of treated hES cell cultures; assay type: cell-based, human; conditions: 50 μM DAPT vs DMSO treated cultures
Procedure: Cells on chamber slides were rinsed once with 1× PBS and fixed for 30 minutes in 4% PFA/4% sucrose in PBS pH7.4 at room temperature for surface staining, or in ice cold 100% methanol for 5 minutes at −20° C. followed by 4% PFA/4% sucrose in PBS for 10 minutes at room temperature for intracellular staining using the bTAN20 antibody. They were rinsed 3× in 1×PBS and blocked in 3% goat serum/1% PVP with or without 0.3% Triton-X100 in PBS for 30 minutes at 4° C. Primary antibodies were diluted in blocking solution and this solution was applied overnight at 4° C. to the cells. Cells were rinsed in 1×PBS and washed overnight with 3 changes of 1×PBS. Secondary antibodies were applied in blocking solution for 2 hours at 4° C. They were rinsed in 1×PBS then washed overnight with 3 changes of 1×PBS. Cell nuclei were stained with DAPI at 1 μg/ml in the first rinse for 10 minutes. The chambers were removed and slides were mounted in VectaShield mounting medium.
Inhibition of gamma-secretase reduces the number of spontaneously differentiated cells in the culture. […] These experiments are diagramed in FIG. 9. hES cell master cultures were maintained with the manual passaging technique. […] The treated cultures were analyzed for SSEA4 expression by flow cytometry, immunohistochemistry, and EB formation.

[4] = inhibitor treatment vs DMSO, 4 experiments, BGN1 and BGN2

T1 sequence (Q92542 34-709, other chains not shown): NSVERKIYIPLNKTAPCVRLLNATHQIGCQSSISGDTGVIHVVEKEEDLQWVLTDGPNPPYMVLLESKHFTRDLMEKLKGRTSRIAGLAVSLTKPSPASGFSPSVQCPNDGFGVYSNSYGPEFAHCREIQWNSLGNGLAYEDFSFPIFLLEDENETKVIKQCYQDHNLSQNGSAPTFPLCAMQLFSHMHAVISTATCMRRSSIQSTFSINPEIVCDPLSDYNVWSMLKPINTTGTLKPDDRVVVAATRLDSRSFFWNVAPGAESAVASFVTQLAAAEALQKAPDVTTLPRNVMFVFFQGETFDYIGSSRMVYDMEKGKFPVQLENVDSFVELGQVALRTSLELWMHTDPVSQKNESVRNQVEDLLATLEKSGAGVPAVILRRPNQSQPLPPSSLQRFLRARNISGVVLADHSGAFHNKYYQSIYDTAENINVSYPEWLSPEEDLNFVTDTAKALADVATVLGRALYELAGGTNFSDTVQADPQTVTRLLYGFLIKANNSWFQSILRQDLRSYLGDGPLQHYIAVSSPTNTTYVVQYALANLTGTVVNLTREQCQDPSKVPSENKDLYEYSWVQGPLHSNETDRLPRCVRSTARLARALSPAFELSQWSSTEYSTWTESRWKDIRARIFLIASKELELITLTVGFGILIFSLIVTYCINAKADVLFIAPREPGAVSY
T1 sequence (Q96BI3 whole entry, other chains not shown, further chain): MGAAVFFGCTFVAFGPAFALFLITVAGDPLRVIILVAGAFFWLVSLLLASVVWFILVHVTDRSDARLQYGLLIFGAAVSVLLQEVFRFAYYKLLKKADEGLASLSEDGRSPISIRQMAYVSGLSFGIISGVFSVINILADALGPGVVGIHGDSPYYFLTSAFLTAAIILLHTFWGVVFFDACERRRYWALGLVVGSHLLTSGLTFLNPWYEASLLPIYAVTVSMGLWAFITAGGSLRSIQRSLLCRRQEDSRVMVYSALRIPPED
T1 sequence (Q9NZ42 whole entry, other chains not shown, further chain): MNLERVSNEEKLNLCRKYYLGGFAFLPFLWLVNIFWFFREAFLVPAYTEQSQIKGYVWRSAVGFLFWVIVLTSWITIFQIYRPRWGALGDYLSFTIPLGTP

C[C@H](NC(=O)Cc1cc(F)cc(F)c1)C(=O)N[C@H](C(=O)OC(C)(C)C)c1ccccc1 [DAPT, N-[N-(3,5-Difluorophenacetyl-L-alanyl)]-S-phenylglycine t-Butyl Ester]
morphology of embryoid bodies (hES cells [1]): returned the EBs to a cystic morphology
generation of the NICD fragment (cleaved form of Notch1) upon Trypsin/EDTA exposure (gamma-secretase complex): not generated
Hes1 induction by EDTA in the presence of the inhibitor (GAPDH normalized expression ratio) (Hes1; 50 μM DAPT 4 hours to overnight, 2 mM EDTA 15 minutes, three independent experiments): less than two-fold
reduction in Hes1 expression with inhibitor treatment, significance (Hes1; EDTA induction, DAPT vs DMSO, p=0.032, t-test): significant
proportion of cells in Fr. A (SSEA4high/Notch1high, undifferentiated cells) ([2]; BGN1 and BGN2): small but significant increase
proportion of cells in Fr. A (SSEA4high/Notch1high, undifferentiated cells) ([2]; BGN1 and BGN2, listed as inhibitor): significantly increased
cells in Fr. B (SSEA4low-neg/Notch1pos, differentiating cells) ([2]; 50 μM DAPT, average of four experiments, BGN1 and BGN2, DMSO control 30%, p=0.0243): 15%
proportion of Fr. B (SSEA4low-neg/Notch1pos) cells in culture, in words ([2]; DAPT vs DMSO and untreated, triplicate cultures): reduced
number of cells in Fr. A [2, 4]: remained unchanged
number of cells in Fr. B [2, 4]: significantly reduced
homogeneity of SSEA4 expression (immunohistochemical stain) (hES cells [3]): more homogenous

O=C(O)CN(CCN(CC(=O)O)CC(=O)O)CC(=O)O [EDTA]
Hes1 induction by EDTA exposure (Hes1; 2 mM EDTA 15 minutes, three independent experiments): up to 10 fold
